How the values were obtained:
Format in all cases: cell-based, E. coli
CFT073 Δlgt = test: MIC assay, CFT073 Δlgt, Lgt 4% Ara; details: Escherichia coli
Protocol: Unless stated otherwise, E. coli cells were grown in Luria-Bertani (LB) medium (0.5% yeast extract, 1% tryptone, 0.5% NaCl) at 37°C. Where indicated, kanamycin (Kan) was added to culture media at a 50-μg/ml final concentration. MIC assays were performed based on Clinical and Laboratory Standards Institute (CLSI) guidelines. For in vitro growth curves, overnight cultures of WT CFT073, CFT073 Δlgt, and CFT073 Δlgt complemented with lgt from E. coli (lgt^Ec) or P. aeruginosa (lgt^Pa) were grown to mid-exponential phase (optical density at 600 nm [OD600] of 0.6) and then diluted to an OD600 of 0.1 to initiate growth curves. At various times, culture aliquots were diluted and plated in dilutions on LB+Kan agar, and CFU were enumerated in duplicates. Growth of MG1655 inducible deletion strains was measured by culturing in the presence of 2-fold dilutions of arabinose (starting arabinose concentrations for CFT073 and MG1655 inducible deletion strains were 4% and 0.8%, respectively). While […] was sufficient for WT growth of MG1655 Δlgt, 4% arabinose was used for CFT073 Δlgt based on comparing its growth to that of WT CFT073 as measured by CFU. OD600 growth measurements were performed using an EnVision 2101 multilabel reader plate reader (PerkinElmer) linked with Echo liquid handler (Labcyte). For time-kill experiments, bacteria were harvested in mid-exponential phase and treated with 12.5 μM G2824, 3.2 μM globomycin, and 1.6 μM vancomycin. CFU were enumerated at various times posttreatment. Bacterial culture medium containing 2% arabinose was used to induce lpp or lppΔK expression from pBad24 plasmids. Bacterial viability at different time points during the treatment was measured by enumerating CFU. Serum killing assays were carried out as previously described ([17]).

CFT073 imp4213 lpp^Ara = test: Western blot of Lpp forms, arabinose-inducible Lpp; details: Lpp induced with arabinose prior to treatment
Description: Lpp expression was induced prior to treatment with G2824 or globomycin to minimize the level of preexisting triacylated Lpp.
Bacterial cell samples normalized for equivalent OD600 and resuspended in BugBuster lysis buffer (Fischer Scientific) with the addition of sample buffer (LI-COR), and proteins were separated by SDS-PAGE using 16% Tricine protein gels or NuPAGE 4% to 20% bis-Tris gels (Thermo Fisher Scientific), transferred to nitrocellulose membranes using the iBlot 2 dry blotting system (Invitrogen), and blocked using LI-COR blocking buffer for 30 min. Unless stated otherwise, loading buffer with reducing agents was added and samples were not boiled prior to SDS-PAGE. For the sucrose gradient centrifugation, samples were boiled prior to running the SDS-PAGE. Primary antibodies were used at a final concentration of 1 μg/ml with some exceptions: rabbit anti-Lpp polyclonal antibody (0.1 μg/ml), murine anti-Pal 6D7 antibody (0.5 μg/ml), rabbit anti-GroEL antibody (1:10,000 final dilution), and rabbit anti-OmpA antibody (1:50,000 final dilution). The secondary antibodies were all obtained from LI-COR and used as per manufacturer’s instructions. Images were collected using the Odyssey CLx imaging system (LI-COR) and analyzed by Image Studio Lite.

MG1655 imp4213 = test: Sucrose gradient centrifugation, IM and OM separation; details: 1× MIC, 60 min
Protocol: Bacterial inner and outer membranes were separated by isopycnic sucrose gradient centrifugation as described previously ([75]) and by the Hancock Laboratory (http://cmdr.ubc.ca/bobh/method/outer-membrane-preparation-one-step-sucrose-gradient-procedure/), with some modifications. Briefly, bacteria were grown in Luria broth at 37°C to mid-exponential phase (OD600 of 0.8 to 0.9) and then treated with 1× MIC of designated inhibitors for 1 h. Cells representing equivalents of an OD600 of 10 were harvested by centrifugation at 4,000 × g for 15 min, washed once, and resuspended in cold 10 mM Tris, pH 8.0, containing 20% (wt/vol) sucrose, cOmplete EDTA-free protease inhibitor cocktail (Roche), and 1,000 U/ml nuclease (Benzonase nuclease; EMD Millipore). The cell suspension was disrupted by two passages through an LV1 Microfluidizer (Microfluidics). Unbroken cells were removed by centrifugation at 4,000 × g, and membranes were collected by ultracentrifugation at 100,000 × g for 1 h and washed once with cold 10 mM Tris, pH 8.0. The final membrane preparation was resuspended in 10 mM Tris, pH 8.0, containing 10% sucrose, cOmplete EDTA-free protease inhibitor cocktail (Roche), and 1,000 U/ml nuclease and then applied to the top of the sucrose gradients (73%, 60%, and 20%). The loaded gradients were spun at 39,000 rpm for 22 h at 4°C in a Beckman SW 41 Ti rotor. Fractions were collected from the top and analyzed by SDS-PAGE and immunoblotting with appropriate antibodies.

cells expressing lppΔK = test: Time-kill, CFT073 imp4213 Δlpp complemented with lpp or lppΔK; details: 12.5 μM G2824 or 3.2 μM globomycin; CFU; lppΔK (unable to link to PGN) versus WT lpp
Description: To determine if loss of PGN linkage of Lpp leads to increased G2824 bactericidal activity, we treated CFT073 imp4213 Δlpp cells complemented with either WT lpp or a mutant form that is unable to covalently link to PGN (lppΔK). Using the previously described SDS fractionation protocol, we confirmed that while WT Lpp localized to both PAP and non-PAP fractions, the LppΔK mutant was primarily detected in the non-PAP fraction (see Fig. S5A). As we noted earlier, PGN-linked DGPLP (§) and other PGN-linked Lpp forms (†) were primarily detectable in the PAP fraction (Fig. S5A).
Unless stated otherwise, E. coli cells were grown in Luria-Bertani (LB) medium (0.5% yeast extract, 1% tryptone, 0.5% NaCl) at 37°C. […] Growth of MG1655 inducible deletion strains was measured by culturing in the presence of 2-fold dilutions of arabinose (starting arabinose concentrations for CFT073 and MG1655 inducible deletion strains were 4% and 0.8%, respectively). While 2% arabinose was sufficient for WT growth of MG1655 Δlgt, 4% arabinose was used for CFT073 Δlgt based on comparing its growth to that of WT CFT073 as measured by CFU. OD600 growth measurements were performed using an EnVision 2101 multilabel reader plate reader (PerkinElmer) linked with Echo liquid handler (Labcyte). […] Bacterial viability at different time points during the treatment was measured by enumerating CFU. […]

CFT073 imp4213 = test: SDS fractionation (PAP and non-PAP) of Lpp and Pal; details: 0.5× MIC, 60 min, PAP fraction
Protocol: Purification of PGN-associated proteins (PAP) was performed according to published methods ([17], [40], [41]) with some modifications. Briefly, bacteria were harvested in mid-exponential phase for treatment and then subjected to PAP extraction by resuspending the cell pellets from an OD (A600) of 10 in 6 ml of PAP extraction buffer containing 2% (wt/vol) SDS in 100 mM Tris-HCl (pH 8.0) with 100 mM NaCl, 10% glycerol, and cOmplete, mini, EDTA-free protease inhibitor cocktail (Sigma-Aldrich). After 60 min at RT, the extraction was subjected to centrifugation at 100,000 × g for 60 min at 22°C, and the pellet, containing PGN and associated proteins, was washed once with the same PAP extraction buffer with centrifugation at 100,000 × g for 30 min and resuspended in 200 μl of PAP extraction buffer (referred to as the SDS-insoluble on PAP fraction). The supernatant containing the SDS-soluble fraction was aliquoted and frozen (referred to as non-PAP fraction). Both fractions were treated with equal volumes of BugBuster buffer prior to the addition of sample buffer for Western immunoblotting as described above. It should be noted that the final PAP fractions were ∼30-fold more concentrated than the non-PAP fractions.

## CN[C@H](CC(C)C)C(=O)N[C@H]1C(=O)N[C@@H](CC(N)=O)C(=O)N[C@H]2C(=O)N[C@H]3C(=O)N[C@H](C(=O)N[C@H](C(=O)O)c4cc(O)cc(O)c4-c4cc3ccc4O)[C@H](O)c3ccc(c(Cl)c3)Oc3cc2cc(c3O[C@@H]2O[C@H](CO)[C@@H](O)[C@H](O)[C@H]2O[C@H]2C[C@](C)(N)[C@H](O)[C@H](C)O2)Oc2ccc(cc2Cl)[C@H]1O [Vancomycin]
CFT073 Δlgt
  MIC: > 100 µM

## CCCCCC[C@H]1OC(=O)CNC(=O)[C@H]([C@H](C)O)NC(=O)[C@H](CO)NC(=O)[C@H]([C@H](C)CC)NC(=O)[C@H](CC(C)C)N(C)C(=O)[C@@H]1C [Globomycin]
CFT073 imp4213 lpp^Ara
  level of mature Lpp: decreased mature Lpp
MG1655 imp4213
  IM accumulation of OM lipoproteins and OMPs: IM accumulation of OM lipoproteins (Pal and BamB) and OMPs (BamA and OmpA)
  IM accumulation of PGN-linked Lpp: significant IM accumulation of PGN-linked Lpp, including DGPLP
  localization of OmpA: mislocalization of the β-barrel protein, OmpA
MG1655 imp4213; versus untreated
  IM total protein and OM density: increases in total protein levels in the IM fraction and a decrease in OM density
Cells expressing lppΔK
  effect of lppΔK on bactericidal killing: completely resistant
CFT073 imp4213
  levels of PGN-linked Lpp and Pal: accumulation of PGN-linked DGPLP (§) and other PGN-linked Lpp forms (†)

— publication PMC8316002, “Inhibition of Escherichia coli Lipoprotein Diacylglyceryl Transferase Is Insensitive to Resistance Caused by Deletion of Braun’s Lipoprotein” (Journal of Bacteriology, 2021)
